The values that follow come from patent publication US11286268B1, “EIF4E-inhibiting compounds and methods” (EFFECTOR THERAPEUTICS, INC., priority 2019, dated 2022).

Like-named read-outs stand apart in the source and are kept apart here.

For the assay, the target named is recombinant eIF4E (Homo sapiens (Human), UniProt P06730). Kind of assay: Fluorescence polarization competition assay for eIF4E binding potency. In short, it runs like this: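 IC50 derived from fluorescence polarization over an 8-point, 3-fold compound series after 30 min room-temperature equilibration in the dark. Mix: eIF4E 75 nM pre-bound 5 min to 20 nM EDA-m^7GDP-ATTO-550; buffer 20 mM Tris pH 7.5, 100 mM NaCl, 1 mM DTT, 0.02% Tween-20; DMSO 1%.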
On the technique in general: In fluorescence polarisation assays a small probe gives low polarisation when free and higher when bound to something large.

[1] abbreviates: fluorescence polarization competition, 75 nM recombinant eIF4E, 20 nM EDA-m7GDP-ATTO-550, IC50 class, read-out: elF4E FP.
[2] abbreviates: inhibition of eIF4E/EDA-m7GDP-ATTO-550 binding by 50%, Table 4B calculated values, read-out: IC50.
Setting [3] is: inhibition of eIF4E/EDA-m7GDP-ATTO-550 binding, calculated IC50 values, Table 4B, read-out: IC50.

Sequence of recombinant eIF4E (P06730 whole entry): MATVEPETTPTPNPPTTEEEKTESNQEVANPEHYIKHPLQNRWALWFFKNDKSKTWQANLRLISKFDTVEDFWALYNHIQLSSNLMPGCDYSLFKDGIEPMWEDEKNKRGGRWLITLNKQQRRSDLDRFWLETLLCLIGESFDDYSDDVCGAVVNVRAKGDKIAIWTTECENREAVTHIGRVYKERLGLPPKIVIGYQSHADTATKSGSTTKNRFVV

With `Cc1cc(-c2cc(Cl)ccc2OCCn2c(C)nc3cc(C(F)(F)F)c(CN4CCNCC4)c(C#N)c3c2=O)c2scc(C(=O)O)c2n1` [compound 649], the IC50 by setting is: under setting [1], less than 50 nM; under setting [2], 15 nM. The corresponding values for `Cc1cc(-c2cc(Cl)ccc2OCCn2c(C)nc3cc(C(F)(F)F)c(N4CC(O)C4)nc3c2=O)c2scc(C(=O)O)c2n1` [compound 797] are less than 50 nM and 6.79 nM. For `O=C(O)c1cccc(-c2cc(Cl)ccc2OCCc2cccc3nc[nH]c(=O)c23)c1` [compound 170] the same measures were 50 to 1000 nM and 845 nM. `O=C(O)c1cccc(-c2cc(Cl)ccc2OCCn2cnc3cc(F)cc(F)c3c2=O)c1` [compound 78]: the IC50 was more than 1000 nM under setting [1] and 1630 nM under setting [2].

Turning to `Cc1cc(-c2c(C(F)(F)F)cc3nc(C)n(CCOc4ccc(Cl)cc4-c4cc(C)nc5c(C(=O)O)csc45)c(=O)c3c2C#N)c(F)cn1` [compound 471], the IC50 was less than 50 nM under setting [1] and 28.8 nM under setting [2]. With `Cc1cc2nccc(-c3cc(Cl)ccc3OCCn3c(C)nc4cc(C(F)(F)F)c(N5CCN(C)CC5)c(C#N)c4c3=O)c2s1` [compound 1248], the IC50 by setting is: under setting [1], 50 to 1000 nM; under setting [3], 60.7 nM. On to `Cc1nc2cnc(N(C)C3CCN(C4CC(F)(F)C4)CC3)c(C#N)c2c(=O)n1CC#Cc1ccc(Cl)cc1-c1ccnc2c(C(=O)NS(=O)(=O)c3cccnc3)csc12` [compound 1110], for which the IC50 is, setting by setting: under setting [1], less than 50 nM; under setting [2], 7.2 nM.

With `Cc1cc(-c2cc(Cl)ccc2OCCn2c(C)nc3cc(C(F)(F)F)c(N4CCN(C)CC4)c(C#N)c3c2=O)c(C)c(C(=O)O)n1` [compound 1226], the IC50 by setting is: under setting [1], less than 50 nM; under setting [3], 6.63 nM.

For the compound `Cc1nc2ccc(S(=O)(=O)NCc3ccccc3)c(C#N)c2c(=O)n1CCOc1ccc(Cl)cc1-c1ccnc2c(C(=O)O)csc12` [compound 252], the IC50 is, setting by setting: under setting [1], less than 50 nM; under setting [2], 42 nM. As to `Cc1ccc(N(C)c2c(Cl)cc3nc(C)n(CCOc4ccc(Cl)cc4-c4cc(C)nc5c(C(=O)O)csc45)c(=O)c3c2C#N)cn1` [compound 959], the IC50 was less than 50 nM under setting [1] and 14.8 nM under setting [2]. With `CCN(c1ncc2nc(C)n(CC#Cc3ccc(Cl)cc3-c3ccnc4c(C(=O)NS(=O)(=O)c5cccnc5)csc34)c(=O)c2c1C#N)C1CCN([C@H]2C[C@@H](OC(F)(F)F)C2)CC1` [compound 1780], the IC50 under setting [3] is 10.9 nM. As to `CCc1ncccc1-c1c(C(F)(F)F)cc2nc(C)n(CCOc3ccc(Cl)cc3-c3cc(C)nc4c(C(=O)O)csc34)c(=O)c2c1C#N` [compound 466], the IC50 reads like this: under setting [1], less than 50 nM; under setting [2], 9.3 nM. The corresponding values for `Cc1nc2cc(C(F)(F)F)c(CN3CCN(C)CC3)c(C#N)c2c(=O)n1CCOc1ccc(Cl)cc1-c1cc(CCF)nc2c(C(=O)O)csc12` [compound 644] are less than 50 nM and 4.97 nM.

With `Cc1nc2cnc(N3CCN(CC(C)(C)F)CC3)c(C#N)c2c(=O)n1CCOc1ccc(Cl)cc1-c1ccnc2c(C(=O)O)csc12` [compound 1317], the IC50 under setting [3] was 33.5 nM. Regarding `Cc1cc(-c2cc(Cl)ccc2OCCn2c(C)nc3ccc(N(C)C)nc3c2=O)c2scc(C(=O)O)c2n1` [compound 679], the IC50 is 50 to 1000 nM under setting [1] and 160 nM under setting [2]. For `CS(=O)(=O)c1cc(C#N)c2c(=O)n(CCOc3ccc(Cl)cc3-c3cccc(C(=O)O)c3)c(CF)nc2c1` [compound 233] the same measures were less than 50 nM and 28.9 nM. As for `COCC1(N2CCN(c3ncc4nc(C)n(CC#Cc5ccc(Cl)cc5-c5ccnc6c(C(=O)O)csc56)c(=O)c4c3C#N)CC2)CC1` [compound 1465], the IC50 under setting [3] was 23.6 nM. In the case of `CCN(c1ncc2nc(C)n(CC#Cc3ccc(Cl)cc3-c3ccnc4c(C(=O)NS(=O)(=O)CC(F)F)csc34)c(=O)c2c1C#N)C1CCN(C2COC2)CC1` [compound 1745], under setting [3], the IC50 is 11 nM.

For `Cc1nc2cnc(N3CCN(C(C)(C)CC#N)CC3)c(C#N)c2c(=O)n1CC#Cc1ccc(Cl)cc1-c1ccnc2c(C(=O)O)csc12` [compound 1367], under setting [3], the IC50 is 14.9 nM. For `Cc1nc2cnc(N(C)C3CCN(CC(F)(F)F)CC3)c(C#N)c2c(=O)n1CCOc1ccc(Cl)cc1-c1ccnc2c(C(=O)O)csc12` [compound 865], the IC50 reads like this: under setting [1], less than 50 nM; under setting [2], 28.4 nM.

For `Cc1nc2c(N3CCNCC(F)(F)C3)ncc(C#N)c2c(=O)n1CCOc1ccc(Cl)cc1-c1ccnc2c(C(=O)O)csc12` [compound 837], the IC50 reads like this: under setting [1], less than 50 nM; under setting [2], 13.4 nM. Take `COCCC(CCOC)N(C)c1ncc2nc(C)n(CC#Cc3ccc(Cl)cc3-c3ccnc4c(C(=O)O)csc34)c(=O)c2c1C#N` [compound 1505]: the IC50 under setting [3] is 13 nM. `Cc1nc2cc(C(F)(F)F)c3c(c2c(=O)n1CCOc1ccc(Cl)cc1-c1ccnc2c(C(=O)O)csc12)C(=O)OC3` [compound 1972]: the IC50 under setting [3] is 18 nM. As to `CO[C@H]1C[C@@H](c2ncc3nc(C)n(CCOc4ccc(Cl)cc4-c4cc(C)nc5c(C(=O)O)csc45)c(=O)c3c2C#N)C1` [compound 1152], the IC50 is less than 50 nM under setting [1] and 3.8 nM under setting [2].

For `Cc1nc2cnc(N(C)C3CCN(C4CC(F)(F)C4)CC3)c(C#N)c2c(=O)n1CC#Cc1ccc(Cl)cc1-c1ccnc2c(C(=O)NS(=O)(=O)C3CC(F)(F)C3)csc12` [compound 1833], the IC50 under setting [3] is 14.8 nM. With `Cc1cc(-c2cc(Cl)ccc2OCCn2c(C)nc3cc(Cl)c(-c4cccnc4C)c(C#N)c3c2=O)c2scc(C(=O)O)c2n1` [compound 395], the IC50 is less than 50 nM under setting [1] and 9.68 nM under setting [2]. The corresponding values for `Cc1cc(-c2cc(Cl)ccc2OCCn2c(C)nc3c(F)cc(C(F)F)c(C#N)c3c2=O)c2scc(C(=O)NS(=O)(=O)C(F)(F)F)c2n1` [compound 593] are less than 50 nM and 32.9 nM. As to `Cc1nc2cnc(N(C)C3CCN(C(C)CF)CC3)c(C#N)c2c(=O)n1CC#Cc1ccc(Cl)cc1-c1ccnc2c(C(=O)O)csc12` (centres unmarked) [compound 1508], the IC50 under setting [3] is 17.4 nM. `Cc1cc(-c2cc(Cl)ccc2OCCn2c(C)nc3c(-c4ccccc4)nc(N(C)C)c(C#N)c3c2=O)c2scc(C(=O)O)c2n1` [compound 987]: the IC50 is less than 50 nM under setting [1] and 13.6 nM under setting [2].

Regarding `Cc1nc2cnc(N3CCN(C4(CF)CC4)CC3)c(C#N)c2c(=O)n1CCOc1ccc(Cl)cc1-c1ccnc2c(C(=O)O)csc12` [compound 1336], the IC50 under setting [3] was 13 nM. `Cc1cc(-c2cc(Cl)ccc2OCCn2c(C)nc3c(C)ncc(C#N)c3c2=O)c2scc(C(O)C(F)(F)F)c2n1` (centres unmarked) [compound 733]: the IC50 was more than 1000 nM under setting [1] and 1730 nM under setting [2]. For the compound `Cc1ncc(F)cc1-c1c(C(F)(F)F)cc2nc(C)n(CCOc3ccc(Cl)cc3-c3ccnc4ccsc34)c(=O)c2c1C#N` [compound 706], the IC50 under setting [1] lay in the range of 50 to 1000 nM. `Cc1cc(-c2cc(Cl)ccc2OCCn2c(C)nc3cc(C(F)(F)F)c(-c4ncccc4C)c(C#N)c3c2=O)c2scc(C(=O)O)c2n1` [compound 1380]: the IC50 under setting [3] is 26.6 nM. On to `Cc1cc(-c2c(C(F)F)cc3nc(C)n(CCOc4ccc(Cl)cc4-c4cc(C)nc5c(C(=O)O)csc45)c(=O)c3c2C#N)ccn1` [compound 1386], for which, under setting [3], the IC50 is 12.8 nM. `N#Cc1cc(C(F)(F)F)cc2ncn(CCOc3ccc(Cl)cc3-c3cccc(C(=O)O)c3)c(=O)c12` [compound 1994]: the IC50 under setting [3] is 41.8 nM.

With `Cc1nc2cnc(N(C)C3CCN(CCOC(F)F)CC3)c(C#N)c2c(=O)n1CCOc1ccc(Cl)cc1-c1ccnc2c(C(=O)O)csc12` [compound 1513], the IC50 under setting [3] was 13.4 nM. Regarding `N#Cc1cc2c(=O)n(Cc3cc4cc(Cl)cc(-c5cccc(C(=O)O)c5)c4o3)cnc2cn1` [compound 25], the IC50 was more than 1000 nM under setting [1] and 12600 nM under setting [2]. As for `Cc1nc2cnc(N(C)C3CCN(CC(F)(F)Cl)CC3)c(C#N)c2c(=O)n1CC#Cc1ccc(Cl)cc1-c1ccnc2c(C(=O)O)csc12` [compound 1585], under setting [3], the IC50 is 15.2 nM.

In the case of `N#Cc1cc2c(=O)n(CC#Cc3ccc(Cl)cc3-c3cccc(C(=O)O)c3)cnc2cn1` [compound 130], the IC50 is, setting by setting: under setting [1], more than 1000 nM; under setting [2], 1420 nM. As for `Cc1ncc(F)cc1-c1c(CN(C)C)cc2nc(C)n(CCOc3ccc(Cl)cc3-c3ccnc4c(C(=O)O)csc34)c(=O)c2c1C#N` [compound 1267], the IC50 under setting [3] is more than 1000 nM. Consider `Cc1nc2c(C(C)C)nc(N3CCN(CCF)CC3)c(C#N)c2c(=O)n1CCOc1ccc(Cl)cc1-c1ccnc2c(C(=O)O)csc12` [compound 183], for which the IC50 by setting is: under setting [1], 50 to 1000 nM; under setting [2], 50.2 nM. For `Cc1cc(-c2cc(Cl)ccc2OCCn2c(C)nc3cnc(N4CC(C)(O)C4)c(C#N)c3c2=O)c2scc(C(=O)O)c2n1` [compound 1057] the same measures were less than 50 nM and 12.5 nM. With `Cc1cc(-c2cc(Cl)ccc2OCCn2c(C)nc3cc(-c4cccnc4)c(C)c(C#N)c3c2=O)c2scc(C(=O)O)c2n1` [compound 759], the IC50 reads like this: under setting [1], 50 to 1000 nM; under setting [2], 52.9 nM. Regarding `Cc1nc2cnc(N(C)CCN(C)CC(F)(F)F)c(C#N)c2c(=O)n1CC#Cc1ccc(Cl)cc1-c1ccnc2c(C(=O)O)csc12` [compound 1491], the IC50 under setting [3] was 29 nM.

Regarding `C#Cc1cc(C#N)c2c(=O)n(CCOc3ccc(Cl)cc3-c3ccnc4c(C(=O)O)csc34)c(C)nc2c1` [compound 213], the IC50 is less than 50 nM under setting [1] and 35.6 nM under setting [2]. As for `Cc1nc2cnc(N(C)[C@@H]3[C@@H]4CN(CC(F)F)C[C@@H]43)c(C#N)c2c(=O)n1CC#Cc1ccc(Cl)cc1-c1ccnc2c(C(=O)O)csc12` [compound 1407], the IC50 under setting [3] was 24.7 nM. For the compound `N#Cc1cc(Br)cc2ncn(CCOc3ccc(Cl)cc3-c3cccc(C(=O)O)c3)c(=O)c12` [compound 1988], the IC50 under setting [3] is 49.5 nM.
